Experiments:
oligodendrocytes [1] = assay: Kainate-induced death in cultures enriched with oligodendrocytes, counting of living Gal-C (+) cells; type: cell-based, Wistar rats; conditions: 48 hours
Method: Oligodendrocytes were obtained from primary glial cultures of spinal cords according to the slightly modified method described by Saneto et al. (Neurochemistry, a Practical Approach, IRL Press, oxford-Washington, D.C., p 27-63 (1987)). Spinal cords from 1-day old Wistar rats were dissected under sterile conditions and separated from the meninges. Five to ten spinal cords were transferred into PBS (phosphate-buffered saline: NaCl 137 mM, KCl 2.68 mM, Na2HPO4 6.45 mM, KH2PO4 1.47 mM) to which 0.25% of trypsin was added. The enzymatic treatment was stopped by addition of Dubelco's modified Eagle's medium (DMEM) to which 10% of fetal bovine serum was added (FBS). Another dissolution step was carried out by means of a 1 ml pipette, and the cell suspension was filtered. The cells were collected by centrifugation and plated at a density of 1.5−2×10^6 cells/25 cm^2 of culture medium in Dubelco's modified Eagle's medium (DMEM) to which 10% of fetal bovine serum was added. After 3 days in vitro, the cultures were fed daily. When a visible monolayer was obtained, the cultures were stirred for 2 hours at 37° C. at 250 rpm, the culture medium was removed, and the flasks were again stirred for 22 hours. The cell-containing medium was incubated at 37° C. in petri dishes for 1 hour in order for the microglia to become attached to the plastic. The oligodendrocytes were collected by centrifugation, plated at a density of 1.6×10^6/cm^2 and maintained in DMEM containing 10% FBS for 1 or 2 days. The medium was then replaced with L15 medium to which sodium bicarbonate (22 mM), conalbumin (0.1 mg/ml), putrescine (0.1 mM), insulin (5 μg/ml), sodium selenite (31 nM), glucose (20 mM), progesterone (21 nM), penicillin (100 IU/ml), streptomycin (100 μg/ml), and horse serum (2%) were added. The oligodendrocytes rapidly differentiated within 24 to 48 hours into a mature and immature phenotype.
(§1) After 48 hours, measured from the start of treatment, the living oligodendrocytes were counted.
The number of Gal-C (+) oligo-dendrocytes were divided for 2 separate counts of the labeled cells in at least 12 fields of 0.63 mm^2 under a 400X microscope. The values were expressed as the number of cells per cm^2 or as the percentage of the control.
The statistical analyses were carried out using the Student's test (t-test).
The cultures of oligodendrocytes were exposed to concentrations of 0.1 to 1 mM kainate for 48 hours.

oligodendrocytes [2] = assay: Test 3: protective effect of riluzole on oligodendrocyte death induced by kainate; type: cell-based, Wistar rats; conditions: Kainate 1000 alone (no riluzole), 48 hours
Method: Oligodendrocytes were obtained from primary glial cultures of spinal cords according to the slightly modified method described by Saneto et al. (Neurochemistry, a Practical Approach, IRL Press, oxford-Washington, D.C., p 27-63 (1987)). Spinal cords from 1-day old Wistar rats were dissected under sterile conditions and separated from the meninges. Five to ten spinal cords were transferred into PBS (phosphate-buffered saline: NaCl 137 mM, KCl 2.68 mM, Na2HPO4 6.45 mM, KH2PO4 1.47 mM) to which 0.25% of trypsin was added. The enzymatic treatment was stopped by addition of Dubelco's modified Eagle's medium (DMEM) to which 10% of fetal bovine serum was added (FBS). Another dissolution step was carried out by means of a 1 ml pipette, and the cell suspension was filtered. The cells were collected by centrifugation and plated at a density of 1.5−2×10^6 cells/25 cm^2 of culture medium in Dubelco's modified Eagle's medium (DMEM) to which 10% of fetal bovine serum was added. After 3 days in vitro, the cultures were fed daily. […]
as §1
The number of Gal-C (+) oligo-dendrocytes were divided for 2 separate counts of the labeled cells in at least 12 fields of 0.63 mm^2 under a 400X microscope. The values were expressed as the number of cells per cm^2 or as the percentage of the control. […]

C=C(C)[C@H]1CN[C@H](C(=O)O)[C@H]1CC(=O)O [Kainate]
Number of oligodendrocytes % relative to the control ± standard deviation (oligodendrocytes [1]; kainate 0.01 mM): 108.2 ± 25.2 % relative to the control | Number of oligodendrocytes % relative to the control ± standard deviation (oligodendrocytes [1]; kainate 0.1 mM): 76.3 ± 27.9 % relative to the control | Number of oligodendrocytes % relative to the control ± standard deviation (oligodendrocytes [1]; kainate 0.5 mM): 25.3 ± 9.3 % relative to the control | Number of oligodendrocytes % relative to the control ± standard deviation (oligodendrocytes [1]; kainate 1 mM): 22.9 ± 7.1 % relative to the control | Induction of death of the oligodendrocytes through apoptosis (oligodendrocytes [1]; kainate at doses of from about 0.1 mM to about 1 mM): strongly induced death of the oligodendrocytes through apoptosis | Number of oligodendrocytes % relative to the control ± standard deviation (oligodendrocytes [2]): 22.9 ± 7.1 % relative to the control

From US20020037902A1 (priority 2000, published 2002)
